Consider four compounds from paper PMC10687260, “1,3-Diphenylureido hydroxamate as a promising scaffold for generation of potent antimalarial histone deacetylase inhibitors” (Scientific Reports, 2023).

The term melting point denotes the temperature of the solid-liquid transition. As a reminder, the IC50 is the concentration that inhibits the measured activity by half.

For one data set, the target named is T1, HDAC8 (Homo sapiens, UniProt Q9BY41).
T1 construct: made in house
T1 sequence (Q9BY41 1-377): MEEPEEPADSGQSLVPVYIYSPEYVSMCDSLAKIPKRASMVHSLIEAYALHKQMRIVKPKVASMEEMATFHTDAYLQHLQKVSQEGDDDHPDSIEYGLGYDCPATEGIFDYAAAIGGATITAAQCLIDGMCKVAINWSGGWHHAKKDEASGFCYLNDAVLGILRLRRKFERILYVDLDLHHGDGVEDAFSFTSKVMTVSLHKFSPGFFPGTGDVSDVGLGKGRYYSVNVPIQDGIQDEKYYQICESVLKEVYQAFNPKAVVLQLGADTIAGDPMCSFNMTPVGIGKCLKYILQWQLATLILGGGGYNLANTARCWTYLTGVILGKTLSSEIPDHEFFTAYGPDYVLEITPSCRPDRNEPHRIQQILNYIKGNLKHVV
The experiment in a line: In vitro HDAC enzymatic assay, HDAC8. In kind it is biochemical. Particulars: mean ± SD. As for the experimental part:
(§1) In vitro HDAC enzymatic assays. Recombinant human HDAC1 and HDAC6 were purchased from ENZO Life Sciences AG (Lausen, CH) whereas HDAC8 was produced as described before. In vitro testing of the inhibitors in an enzymatic assay was carried out as described in previous publications[32],[33]. For HDAC1 a fluorogenic peptide derived from p53 (Ac-RHKK(Acetyl)-AMC) was used. For HDAC6, the substrate (Abz-SRGGK(thio-TFA)FFRR-NH2) was used as described before.

The test system of a further data set is Jurkat. On the set-up: method as in PMID 33668008. Particulars: Fig. 1A; cited from earlier work.
A further data set has as its target T2, human HDAC6 (Homo sapiens, UniProt Q9UBN7).
T2 construct: purchased ENZO Life Sciences AG (Lausen, CH)
T2 sequence (Q9UBN7 1-1215): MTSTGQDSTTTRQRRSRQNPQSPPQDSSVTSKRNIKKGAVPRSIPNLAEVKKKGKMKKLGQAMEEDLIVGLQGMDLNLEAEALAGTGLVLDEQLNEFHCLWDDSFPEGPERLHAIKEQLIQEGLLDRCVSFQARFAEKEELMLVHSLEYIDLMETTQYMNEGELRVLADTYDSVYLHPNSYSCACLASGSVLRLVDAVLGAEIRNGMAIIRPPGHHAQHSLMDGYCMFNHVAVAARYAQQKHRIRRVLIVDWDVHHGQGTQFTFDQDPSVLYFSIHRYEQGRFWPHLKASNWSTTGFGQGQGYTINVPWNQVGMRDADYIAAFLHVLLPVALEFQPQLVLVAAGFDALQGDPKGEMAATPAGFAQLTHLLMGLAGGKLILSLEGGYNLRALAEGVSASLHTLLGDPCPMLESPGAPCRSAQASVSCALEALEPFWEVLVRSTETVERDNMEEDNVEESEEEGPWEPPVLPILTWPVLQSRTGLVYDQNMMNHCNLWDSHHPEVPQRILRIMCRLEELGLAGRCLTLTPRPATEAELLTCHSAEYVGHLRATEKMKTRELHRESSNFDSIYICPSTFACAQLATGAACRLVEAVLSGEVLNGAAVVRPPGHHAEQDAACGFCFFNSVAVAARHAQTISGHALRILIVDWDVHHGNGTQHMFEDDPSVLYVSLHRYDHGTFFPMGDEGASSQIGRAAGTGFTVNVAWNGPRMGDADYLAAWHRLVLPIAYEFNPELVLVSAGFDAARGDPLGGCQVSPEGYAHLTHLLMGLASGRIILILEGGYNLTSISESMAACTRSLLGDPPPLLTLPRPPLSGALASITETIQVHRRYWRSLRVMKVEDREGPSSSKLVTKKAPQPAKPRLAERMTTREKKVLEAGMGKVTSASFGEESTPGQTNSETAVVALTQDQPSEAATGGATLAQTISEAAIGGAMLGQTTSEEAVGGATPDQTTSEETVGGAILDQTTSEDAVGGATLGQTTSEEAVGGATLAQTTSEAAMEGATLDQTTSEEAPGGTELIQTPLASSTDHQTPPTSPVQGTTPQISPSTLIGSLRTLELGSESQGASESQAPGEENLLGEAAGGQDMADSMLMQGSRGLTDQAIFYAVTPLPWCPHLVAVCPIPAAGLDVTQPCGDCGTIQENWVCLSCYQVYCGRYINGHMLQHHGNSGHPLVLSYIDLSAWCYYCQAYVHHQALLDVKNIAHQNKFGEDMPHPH
Put plainly: In vitro HDAC enzymatic assay, HDAC6. In kind it is biochemical. As to conditions: for IC50: mean ± SD; for HDAC1/6 SI: ratio HsHDAC1 IC50/HsHDAC6 IC50. As for the experimental part:
as §1

A further data set deals with P. falciparum 3D7. The experiment in a line: Antiplasmodial SYBR Green I proliferation assay, P. falciparum 3D7. In kind it is cell-based, Plasmodium falciparum. Particulars: Plasmodium falciparum, 3D7, 96 h, 96 h; values in brackets 95% confidence intervals; read-out: IC50 Pf3D7. An excerpt: Antiplasmodial activity against P. falciparum 3D7 (A, C and E) and P. falciparum Dd2 (B, D, F). […] Curves were plotted using non-linear regression based on means from three independent experiments measured in triplicate. Error bars indicate standard deviation, whose values are provided in the respective table.
Plasmodium falciparum culture and antiplasmodial activity. […] Development, parasitaemia, and morphology of parasites were monitored by light microscopy of thin blood smears stained according to the Romanowsky method (Panótico Rápido staining kit; Laborclin, Pinhais, Paraná, Brazil). […] Fresh 0^+ blood was generously provided by “Hospital Novo Atibaia” (Atibaia, SP, Brazil), and approved by the ethics committee at ICB-USP. The antiplasmodial effect of all compounds was validated against P. falciparum 3D7 strain conducting SYBR Green I (Invitrogen) drug assays as previously reported[30],[46] as a modification of the original procedure. […] Parasite proliferation was measured by the DNA load via fluorescence, using 100 μL of a lysis buffer with SYBR Green I (0.02% v/v) and incubated for 1 h at room temperature in the dark. […] Focal and gain adjustment was performed using the non-treated controls (highest expected fluorescence signal). Data was acquired via the CLARIOstar (V5.20) and MARS software, manually scaled to 0–100%, and plotted using GraphPad Prism (v9.5.2 for Windows, GraphPad Software, La Jolla California USA, www.graphpad.com). Non-treated parasites, the highest solvent concentration on parasites, CQ on parasites, and the highest drug concentration in the medium were used as controls for maximal growth, solvent control, positive biological control, and native drug fluorescence, respectively.

In another data set the test system is Namalwa. On the set-up: method as in PMID 33668008. Particulars: Fig. 1A; cited from earlier work.
A further data set deals with T3, human HDAC1 (Homo sapiens, UniProt Q13547).
T3 construct: purchased ENZO Life Sciences AG (Lausen, CH)
T3 sequence (Q13547 whole entry): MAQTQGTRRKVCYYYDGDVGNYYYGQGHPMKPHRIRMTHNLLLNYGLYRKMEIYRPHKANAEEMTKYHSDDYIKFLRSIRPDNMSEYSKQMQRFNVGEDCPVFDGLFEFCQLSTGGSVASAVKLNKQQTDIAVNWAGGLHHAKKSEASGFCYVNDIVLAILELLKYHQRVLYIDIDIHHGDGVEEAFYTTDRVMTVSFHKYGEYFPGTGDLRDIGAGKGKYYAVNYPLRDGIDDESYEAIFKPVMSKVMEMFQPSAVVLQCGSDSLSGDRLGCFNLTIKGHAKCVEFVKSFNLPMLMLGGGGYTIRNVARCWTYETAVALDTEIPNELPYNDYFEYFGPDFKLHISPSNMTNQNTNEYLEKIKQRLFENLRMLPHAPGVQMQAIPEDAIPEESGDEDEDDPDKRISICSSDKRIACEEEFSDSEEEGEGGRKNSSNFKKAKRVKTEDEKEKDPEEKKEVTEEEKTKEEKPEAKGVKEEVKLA
The experiment in a line: In vitro HDAC enzymatic assay, HDAC1. In kind it is biochemical. As to conditions: mean ± SD. How it is done: as §1

The subject of the next data set is HepG2 cells. Put plainly: Cytotoxicity in human HepG2 cells (WST-1). In kind it is cell-based. As to conditions: Homo sapiens, HepG2; 48 h, WST-1; read-out: IC50 HepG2. As for the experimental part:
Cytotoxicity in human HepG2 cells.[47] […] Cytotoxic effects of compounds were assessed using the cell proliferation reagent WST-1 (Roche; CELLPRO-RO) in a 96-well plate-based screening assay. HepG2 cells were seeded at 10^4 cells/well (100 μL) in 96-well flat-bottom plates (Sarstedt) the night before the experiment to allow attachment of cells. The next day, two-fold serial dilutions of compounds were prepared in fresh medium in an extra plate, and the medium of cells was replaced by the medium containing the compound dilutions. Non-treated cells (max. proliferation), cells treated with the maximal solvent concentration (DMSO; solvent control), and medium with the maximal compound concentration (native absorbance) used as controls. […] Subsequently, 10 μL WST-1 was added to each well and plates were incubated for additional 4 h under standard conditions. WST-1 is a tetrazolium salt and is metabolised by the mitochondrial succinate-tetrazolium-reductase system of living cells and forms formazan, whose absorbance was measured at 450 nm. Absorbance at 630 nm was assessed to check for protein and precipitation background. Both measurements were acquired via the CLARIOstar (V5.20) and MARS software, manually scaled to 0–100%, and plotted with GraphPad Prism (version 9.5.2 for Windows, GraphPad Software, La Jolla California USA).

The target of the next data set is T4, CYP450 2C9 (Homo sapiens, UniProt P11712).
T4 construct: 10 μM compound was incubated with human liver microsomes and selective marker substrates; from tissue; host or cells: human liver microsomes
T4 sequence (P11712 whole entry): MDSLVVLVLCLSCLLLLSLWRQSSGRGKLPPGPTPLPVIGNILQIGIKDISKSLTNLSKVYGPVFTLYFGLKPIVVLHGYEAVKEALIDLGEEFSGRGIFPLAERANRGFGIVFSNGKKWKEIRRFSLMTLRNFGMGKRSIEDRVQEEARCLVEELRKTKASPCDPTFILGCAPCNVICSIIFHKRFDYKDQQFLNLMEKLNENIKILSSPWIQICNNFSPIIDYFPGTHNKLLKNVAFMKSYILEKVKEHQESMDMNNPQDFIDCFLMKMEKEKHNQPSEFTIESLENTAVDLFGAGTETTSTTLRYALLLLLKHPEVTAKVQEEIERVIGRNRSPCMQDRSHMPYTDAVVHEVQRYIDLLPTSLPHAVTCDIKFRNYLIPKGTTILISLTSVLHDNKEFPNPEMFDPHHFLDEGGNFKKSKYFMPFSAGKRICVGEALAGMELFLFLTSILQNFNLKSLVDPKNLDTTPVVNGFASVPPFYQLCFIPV
The experiment in a line: CYP450 inhibition in human liver microsomes, 2C9. In kind it is in vitro ADME. Particulars: 10 µM. On the technique in general: Liver microsomes are vesicles of endoplasmic reticulum, rich in cytochrome P450 enzymes.

In the next data set the target is T5, CYP1A2 (Homo sapiens, UniProt P05177).
T5 construct: 10 μM compound was incubated with human liver microsomes and selective marker substrates; from tissue; host or cells: human liver microsomes
T5 sequence (P05177 1-516): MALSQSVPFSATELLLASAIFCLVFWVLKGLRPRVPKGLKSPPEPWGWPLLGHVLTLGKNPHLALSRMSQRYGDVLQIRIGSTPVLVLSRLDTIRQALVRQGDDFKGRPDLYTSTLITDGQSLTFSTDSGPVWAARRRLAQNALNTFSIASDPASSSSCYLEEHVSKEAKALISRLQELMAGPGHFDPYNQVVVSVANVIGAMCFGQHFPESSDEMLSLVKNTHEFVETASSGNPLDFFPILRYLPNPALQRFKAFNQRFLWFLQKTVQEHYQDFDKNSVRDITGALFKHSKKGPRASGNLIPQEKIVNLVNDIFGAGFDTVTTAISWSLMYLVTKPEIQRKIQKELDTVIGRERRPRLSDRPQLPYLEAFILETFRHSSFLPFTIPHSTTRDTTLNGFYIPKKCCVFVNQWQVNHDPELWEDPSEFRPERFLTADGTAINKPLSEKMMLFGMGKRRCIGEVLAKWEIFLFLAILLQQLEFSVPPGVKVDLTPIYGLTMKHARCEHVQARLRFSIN
Put plainly: CYP450 inhibition in human liver microsomes, 1A2. In kind it is in vitro ADME. Particulars: 10 µM.

The target in the next data set is CYP450 3A4 (Homo sapiens, UniProt P08684). The experiment in a line: CYP450 inhibition in human liver microsomes, 3A4. How it is done:
DMPK evaluation. […] At 0, 5, 10, 20, 40, and 60 min time points, aliquots were removed and acetonitrile was added to quench the reactions and precipitate the proteins. […] After a 10 min incubation, the reaction was terminated and the per cent inhibition was determined.

For the next data set, the target named is T6, CYP450 2D6 (Homo sapiens, UniProt P10635).
T6 construct: 10 μM compound was incubated with human liver microsomes and selective marker substrates; from tissue; host or cells: human liver microsomes
T6 sequence (P10635 whole entry): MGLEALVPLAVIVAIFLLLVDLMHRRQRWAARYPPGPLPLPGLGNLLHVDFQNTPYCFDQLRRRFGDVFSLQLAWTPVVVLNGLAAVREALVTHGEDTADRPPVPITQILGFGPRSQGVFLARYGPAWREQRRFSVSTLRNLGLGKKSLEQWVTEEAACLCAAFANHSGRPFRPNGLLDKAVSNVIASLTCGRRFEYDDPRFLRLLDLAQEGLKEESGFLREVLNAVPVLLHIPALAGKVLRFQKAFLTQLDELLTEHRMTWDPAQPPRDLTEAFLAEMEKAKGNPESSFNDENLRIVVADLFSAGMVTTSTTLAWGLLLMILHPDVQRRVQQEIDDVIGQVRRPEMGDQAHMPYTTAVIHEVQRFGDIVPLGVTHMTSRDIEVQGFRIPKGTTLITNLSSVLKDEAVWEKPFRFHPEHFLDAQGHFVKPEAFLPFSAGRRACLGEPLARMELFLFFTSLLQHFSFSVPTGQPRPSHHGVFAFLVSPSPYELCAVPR
The experiment in a line: CYP450 inhibition in human liver microsomes, 2D6. In kind it is in vitro ADME. As to conditions: 10 µM.

On the set-up of data set [1]: method as in PMID 33046062. Particulars: cited from earlier work.
Another data set deals with P. falciparum culture. Set-up: method as in PMID 33046062. As to conditions: cited from earlier work.

Bounds are passed on as bounds.

Chain of CYP450 3A4 (P08684 whole entry): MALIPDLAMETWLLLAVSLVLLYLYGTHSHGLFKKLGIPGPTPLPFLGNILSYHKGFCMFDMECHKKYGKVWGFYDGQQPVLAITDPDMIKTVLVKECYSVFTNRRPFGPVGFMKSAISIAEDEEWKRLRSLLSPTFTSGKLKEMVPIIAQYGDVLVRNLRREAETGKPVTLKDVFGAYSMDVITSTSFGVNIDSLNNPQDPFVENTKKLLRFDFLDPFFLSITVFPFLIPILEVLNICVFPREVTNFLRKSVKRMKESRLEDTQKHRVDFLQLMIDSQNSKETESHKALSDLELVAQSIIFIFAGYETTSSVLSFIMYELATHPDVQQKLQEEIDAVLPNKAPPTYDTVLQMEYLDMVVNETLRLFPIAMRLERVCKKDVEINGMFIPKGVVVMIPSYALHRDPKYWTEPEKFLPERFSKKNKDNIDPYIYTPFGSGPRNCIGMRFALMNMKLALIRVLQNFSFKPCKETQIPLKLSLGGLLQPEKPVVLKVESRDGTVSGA

`O=C(/C=C/c1ccc(NC(=O)Nc2ccccc2)cc1)NO` [Compound 6a, (E)-N-hydroxy-3-(4-(3-phenylureido)phenyl)acrylamide]: the melting point is 202 to 204 °C. Besides, on HDAC8, the IC50 came to 95.1 ± 4.6 nM. In addition, the half-inhibitory concentration (IC50) with Jurkat is 160 nM. At human HDAC6, the IC50 turned out to be 12.4 ± 0.7 nM and the “HDAC1/6 SI” value came to 109. In addition, the IC50 with P. falciparum 3D7 stood at 1720 nM. The IC50 in the data set on Namalwa was 300 nM. The same compound came in with an IC50 on human HDAC1 of 1350 ± 64.2 nM. In addition, the half-maximal inhibitory concentration (IC50) in the data set with HepG2 cells stood at 22900 nM.
With `Nc1ccc(S(=O)(=O)Nc2ccnn2-c2ccccc2)cc1` [Sulfaphenazole, reference compound], on CYP450 2C9, the “CYP450% inhibition @ 10 µM 2C9” value is reported as 94%. Besides, the “CYP450% inhibition @ 10 µM 1A2” value on CYP1A2 is “* (Inhibition < 10%)”. Moreover, the “CYP450% inhibition @ 10 µM 3A4” value at CYP450 3A4 was “* (Inhibition < 10%)”. For the same compound, the “CYP450% inhibition @ 10 µM 2D6” value at CYP450 2D6 is recorded as “* (Inhibition < 10%)”.
As to `O=C(CCc1ccc(NC(=O)Nc2ccccc2)cc1)NO` [Compound 7a, N-hydroxy-3-(4-(3-phenylureido)phenyl)propanamide], the melting point is 304 °C (dec.). Moreover, half-maximal inhibition on HDAC8 (IC50) required 462 ± 27.6 nM. Besides, the IC50 in the data set with Jurkat is 1590 nM. Further, at human HDAC6, half-maximal inhibition (IC50) required 152 ± 11.6 nM and the “HDAC1/6 SI” value stood at 32. In addition, the IC50 in the data set on P. falciparum 3D7 is 4570 nM. In addition, the IC50 with Namalwa is 780 nM. This compound also registered an IC50 at human HDAC1 of 4890 ± 210 nM. Further, in the data set with HepG2 cells, the IC50 was greater than 50000 nM.
In the case of `Cl.O=C(NO)c1ccc(Cn2cc(-c3ccc(CN4CCCC4)cc3)nn2)cc1` [FNDR-20123], the “Half-life t1/2” value in data set [1] was 2 to 9.21 h. In the data set on P. falciparum culture, the “IC50 against P. falciparum culture” value is on record as “low nanomolar range”.
